This experiment concerns the target T1, selenophosphate synthetase (SPS) (Escherichia coli, UniProt P16456, E197D).
T1 construct: gene selD; full-size selD from E. coli BL21-Gold (DE3), recombinant
Kind of experiment: competitive displacement of TNP-ATP (fluorescence). Type of experiment: binding.

Drawing on paper PMC3956282, “Binding Stoichiometry of a Recombinant Selenophosphate Synthetase with One Synonymic Substitution E197D to a Fluorescent Nucleotide Analog of ATP, TNP-ATP” (Journal of Amino Acids, 2013), this text covers EC50 for 1 molecule.

The term EC50 denotes the midpoint of the concentration-response curve.

T1 sequence (P16456 whole entry E197D): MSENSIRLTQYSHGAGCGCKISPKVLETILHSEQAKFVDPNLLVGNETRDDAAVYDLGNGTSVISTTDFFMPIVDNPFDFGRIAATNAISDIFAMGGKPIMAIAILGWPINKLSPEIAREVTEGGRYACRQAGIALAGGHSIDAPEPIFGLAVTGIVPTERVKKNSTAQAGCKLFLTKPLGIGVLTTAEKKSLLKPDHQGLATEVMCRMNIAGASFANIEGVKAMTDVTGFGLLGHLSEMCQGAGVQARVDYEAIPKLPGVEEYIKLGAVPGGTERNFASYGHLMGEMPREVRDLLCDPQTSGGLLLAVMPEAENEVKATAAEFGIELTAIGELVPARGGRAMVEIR

`Nc1ncnc2c1ncn2[C@@H]1O[C@H](COP(=O)(O)OP(=O)(O)OP(=O)(O)O)[C@@H](O)[C@H]1O` [ATP]: the EC50 stood at 450 µM.
